Data from patent US20070259935A1, “CRYSTALLINE FORMS OF LETROZOLE AND PROCESSES FOR MAKING THEM” (priority 2006, published 2007).
Entries after “also recorded” stand apart in the source; their conditions may differ.

Key:
[1] = Relative stability of the crystalline forms (cooling rate observations in toluene); assay type: physicochemical; settings: concluded from slow versus faster cooling in toluene and the conversion observations
Description: Slow cooling a solution of letrozole in toluene gave mainly Form I, whereas faster cooling a solution in toluene gave Form II.
Indeed, due to the relative instability of Form II, the use of Form II or a mixture of Forms I and II could be liable to conversion during storage to form some or more Form I, respectively. Such a variation in crystalline form is generally undesirable in pharmaceuticals as the different forms can have different properties, e.g. bio-absorption, solubility, degradation, etc. Thus, while the use of either crystalline form in a pharmaceutical composition is contemplated, making the composition from a crystalline letrozole that has an XRPD substantially corresponding to FIG. 1 is preferred.

[2] = Crystal form conversion on stirring in solvent; assay type: physicochemical
[3] = Crystal form conversion during annealing; assay type: physicochemical; settings: annealing above 140° C.
[4] = cited from earlier work

| SMILES | kinetic versus thermodynamic form / relative stability [1] | conversion of crystalline form when stirred in a solvent for 2 weeks ([2]; stirred in a solvent for 2 weeks) | conversion of crystalline form when stirred in various solvents ([2]; stirred in various solvents) | conversion of crystalline form during annealing [3] | conversion of crystalline form when stirred in ethanol ([2]; stirred in ethanol at room temperature) | solubility in dichloromethane ([4]; dichloromethane) | solubility in ethanol ([4]; ethanol) | solubility in water ([4]; water) |
| --- | --- | --- | --- | --- | --- | --- | --- | --- |
| N#Cc1ccc(C(c2ccc(C#N)cc2)n2cncn2)cc1 [Form I, 4,4′-(H-1,2,4-Triazol-1-ylmethylene)dibenzonitrile] | thermodynamically stable form | does not convert into Form II | does not convert | does not convert | – | – | – | – |
| N#Cc1ccc(C(c2ccc(C#N)cc2)n2cncn2)cc1 [Form II, 4,4′-(H-1,2,4-Triazol-1-ylmethylene)dibenzonitrile] | kinetic form; also recorded: generally less stable than the Form I | – | – | (partially) converted into form I | (partially) converted into Form I | – | – | – |
| N#Cc1ccc(C(c2ccc(C#N)cc2)n2cncn2)cc1 [Letrozole, 4,4′-(H-1,2,4-Triazol-1-ylmethylene)dibenzonitrile] | – | – | – | – | – | freely soluble | slightly | practically insoluble |
